Source: US12029776B2, “Composition for treating cancer and use and medicament thereof” (NEWISH TECHNOLOGY (BEIJING) CO., LTD., priority 2020, dated 2024)
Structures can show the parent of a compound that is named as a salt.

The molecules below were run on liver cancer cell line (assay: VEGFR2 inhibitors in combination with the SGLT1 inhibitor on the liver cancer cell line (Example 2)). Settings: combined with SGLT1 inhibitor sotagliflozin, FIG. 11-1 to 11-30.
Format: cell-based
Description: Dimethyl sulfoxide (DMSO) can dissolve formazan in cells, and its light absorption value measured at 570 nm wavelength with an enzyme-linked immunodetector can indirectly reflect the number of living cells. Cell growth was determined by 3-(4,5-dimethylthiazol-2-yl)-2,5-diphenyltetrazolium bromide (MTT) assay in a 96-well plate. Specifically, the cells were digested and counted, and then resuspended into a system containing 5000 cells per 200 μL of culture medium and seeded in each well of a 96-well plate. The next day, the medium was replaced with a medium containing different concentrations of sotagliflozin, apatinib, lenvatinib, and the composition of them. After 48 or 72 hours of incubation with the drugs, 20 μL of MTT reagent was added to each well and incubated for 2 hours. After discarding the medium, the formazan deposit in the cells was dissolved in 100 μL of DMSO. The absorbance was measured at 570 nm by a microplate reader. Samples were used in quadruplicate in each group.

Row | Molecule | tumor suppressive effect in combination with the SGLT1 inhibitor compared with single agent
1 | Cc1cc(Nc2cc(N3CCN(C)CC3)nc(/C=C/c3ccccc3)n2)n[nH]1.O=C(O)C(O)C(O)C(=O)O [ENMD-2076 L-(+)-tartaric acid] | better tumor suppressive effect than as a single agent
2 | Cc1cc(Nc2cc(N3CCN(C)CC3)nc(/C=C/c3ccccc3)n2)n[nH]1 [ENMD-2076] | better tumor suppressive effect than as a single agent
3 | COc1cc2c(Oc3ccc4[nH]c(C)cc4c3F)ccnc2cc1OCC1(N)CC1 [anlotinib (AL3818) dihydrochloride] | better tumor suppressive effect than as a single agent
4 | Cc1cc2c(F)c(Oc3ncnn4cc(OC[C@@H](C)OC(=O)[C@H](C)N)c(C)c34)ccc2[nH]1 [brivanib alaninate] | better tumor suppressive effect than as a single agent
5 | Cc1cc2c(F)c(Oc3ncnn4cc(OC[C@@H](C)O)c(C)c34)ccc2[nH]1 [brivanib] | better tumor suppressive effect than as a single agent
6 | COc1cc2nccc(Oc3ccc(NC(=O)C4(C(=O)Nc5ccc(F)cc5)CC4)cc3)c2cc1OC [cabozantinib malate] | better tumor suppressive effect than as a single agent
7 | COc1cc2c(Oc3ccc4[nH]c(C)cc4c3F)ncnc2cc1OCCCN1CCCC1 [cediranib] | better tumor suppressive effect than as a single agent
8 | CNC(=O)c1c(C)oc2cc(Oc3ncnc4cc(OC)c(OC)cc34)ccc12 [fruquintinib] | better tumor suppressive effect than as a single agent
9 | COc1cc2nccc(Oc3ccc(NC(=O)NC4CC4)c(Cl)c3)c2cc1C(N)=O [lenvatinib mesylate] | better tumor suppressive effect than as a single agent
10 | CCS(=O)(=O)O.COC(=O)c1ccc2c(c1)NC(=O)/C2=C(\Nc1ccc(N(C)C(=O)CN2CCN(C)CC2)cc1)c1ccccc1 [nintedanib ethanesulfonate salt] | better tumor suppressive effect than as a single agent
11 | COC(=O)c1ccc2c(c1)NC(=O)/C2=C(\Nc1ccc(N(C)C(=O)CN2CCN(C)CC2)cc1)c1ccccc1 [nintedanib] | better tumor suppressive effect than as a single agent
12 | CNC(=O)c1cc(Oc2ccc(NC(=O)Nc3ccc(Cl)c(C(F)(F)F)c3)c(F)c2)ccn1 [regorafenib] | better tumor suppressive effect than as a single agent
13 | COCCNCc1ccc(-c2cc3nccc(Oc4ccc(NC(=O)C5(C(=O)Nc6ccc(F)cc6)CC5)cc4F)c3s2)nc1 [sitravatinib] | better tumor suppressive effect than as a single agent
14 | O=C1c2c(O)cc(O)cc2O[C@H](c2ccc(O)c(O)c2)[C@H]1O [taxifolin] | better tumor suppressive effect than as a single agent
15 | CNC(=O)c1cc(COc2nnc(Nc3ccc(Cl)cc3)c3ccoc23)ccn1 [telatinib] | better tumor suppressive effect than as a single agent
16 | cediranib maleate | better tumor suppressive effect than as a single agent
17 | vitamin E | better tumor suppressive effect than as a single agent

These molecules were tested on transplanted tumor of the liver cancer cell line Hep3B (assay: Efficacy on the transplanted tumor in nude mice). Settings: FIG. 10.
Description: Hep3B cells were cultured with 10% serum DMEM medium and were digested and counted after they grew into the logarithmic phase. […] Therefore, the present invention adopted a dose of 5*10e6 cells per nude mouse, and administration was performed in groups after the tumors grew into an average volume of 100 mm^3 in about 21 days. The administration was divided into a solvent control group, an apatinib 50 mg/kg oral administration group, a sotagliflozin 20 mg/kg intraperitoneal injection group, and a combination group of simultaneous apatinib 50 mg/kg oral administration and sotagliflozin 20 mg/kg intraperitoneal injection. The administration cycle was once every other day, and the tumor volumes were measured every Tuesday and Friday and calculated according to the formula V=a*b^2/2 (a is the measured long diameter of the tumor, b is the measured short diameter of the tumor). A graph was mapped using Graphpad prism 5 and the measurement results were analyzed statistically.

Row | Molecule | sensitisation of the transplanted tumor to the growth inhibitory effect of apatinib
18 | CCOc1ccc(Cc2cc([C@@H]3O[C@H](SC)[C@@H](O)[C@H](O)[C@H]3O)ccc2Cl)cc1 [sotagliflozin] | sensitive to the growth inhibitory effect of apatinib
